Test results from US9382295B2, “Cyclic depsipeptide compounds and their uses” (Cypralis Limited, priority 2012, dated 2016).
Converted amounts (≈) assume the structure as drawn. Like-named read-outs stand apart in the source and are kept apart here. Numbered stars: 1 amine (or outer) side, 2 acyl side, 3 side chain; on linkers, the order of the positions; unused ones are H or OH. Square brackets hold non-standard residues; d marks the D form. Peptide text beside a SMILES is read from it. X13 = C[C@H](CCN(Cc1ccccn1)Cc1ccccn1)[C@@H](O)[C@H](C(=O)[*:2])N(C)[*:1]; X33 = C[C@H](CCN1CCC(F)(CO)CC1)[C@@H](O)[C@H](C(=O)[*:2])N(C)[*:1]; X20 = C[C@H](CCN1CCC(F)(F)CC1)[C@@H](O)[C@H](C(=O)[*:2])N(C)[*:1]; X1 = Cc1cccc(CCC[C@@H](C)[C@@H](O)[C@H](C(=O)[*:2])N(C)[*:1])n1; X27 = C[C@H](CCN(C)c1ccccn1)[C@@H](O)[C@H](C(=O)[*:2])N(C)[*:1]; X6 = C[C@H](CCN1CCOC[C@H]1C)[C@@H](O)[C@H](C(=O)[*:2])N(C)[*:1]; X8 = C[C@H](CCN1CCC[C@H]1CO)[C@@H](O)[C@H](C(=O)[*:2])N(C)[*:1]; X11 = C[C@H](CCN(C)CCC#N)[C@@H](O)[C@H](C(=O)[*:2])N(C)[*:1]; d(aThr) = C[C@@H](O)[C@@H](N)C(=O)O; NMeL = CN[C@@H](CC(C)C)C(=O)O; dNMeL = CN[C@H](CC(C)C)C(=O)O; dNMeV = CN[C@@H](C(=O)O)C(C)C; Hiv = CC(C)[C@H](O)C(=O)O; dAbu = CC[C@@H](N)C(=O)O; Sar = CNCC(=O)O

Assays:
[1] = target: T1, cyclophilin A (Cyp A) (Homo sapiens, UniProt P62937); experiment: Protease-free PPIase assay, cyclophilin A; assay type: biochemical
T1 construct: purchased Sigma C3805
T1 sequence (P62937 whole entry): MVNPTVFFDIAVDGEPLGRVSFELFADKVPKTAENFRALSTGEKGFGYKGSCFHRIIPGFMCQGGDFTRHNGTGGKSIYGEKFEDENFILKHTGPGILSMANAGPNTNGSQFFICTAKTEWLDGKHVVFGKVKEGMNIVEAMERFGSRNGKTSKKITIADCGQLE
Method: (§1) The protease-free PPIase assay measures the rate of cis to trans conversion of a peptide substrate catalyzed by the enzymes cyclophilin A and cyclophilin D. Addition of a cyclophilin inhibitor (e.g., a test compound) slows the catalyzed rate and a Ki value is obtained. […] 35 mM HEPES pH 7.8, filtered through a 0.2 μm filter. 50 μM DTT was added prior to use each day and then the buffer was stored on ice. Human recombinant cyclophilin A (Cyp A) (Sigma C3805) enzyme was diluted to 1 μM with enzyme dilution buffer (20 mM HEPES pH 7.8, 40% glycerol, 50 μM DTT and 1 μM BSA) and stored at -20° C. Succinimide-[…]) (from Bachem AG, L-1400), 20 mg/ml prepared in 0.5 M LiCl in trifluoroethanol. All readings were taken with an Agilent 8453 Spectrophotometer which consists of a cuvette holder, stirrer and chiller to maintain a stirred cuvette temperature of 10.0±0.1° C. The temperature is monitored by the use of temperature probe. […] The inhibitor was diluted in 100% DMSO, and then added to the assay to a maximum final concentration of 0.5% DMSO in the assay. A blank spectrum was obtained, then 3 μL of enzyme was added (2 nM final concentration) and then 3 μL substrate (60 μM final concentration) added. The absorbance was measured at 330 nm for 300 s or 500 s for blank runs (NOTE: the substrate must be added in one quick injection and the measurements started immediately to minimize mixing errors). A first order rate equation was fitted to the absorbance data, for each concentration of inhibitor, to obtain the rate constant (the first 10 to 15 seconds were excluded as mixing causes errors in this portion of curve). The catalytic rate was calculated from the enzymatic rate constant minus the background rate constant. An exponential curve was generated using the catalytic rate constants versus the inhibitor concentration to obtain the Ki value for the inhibitor. The Ki value is indicative of the binding affinity between the test compound and cyclophilin A or cyclophilin D.

[2] = target: cyclophilin D (Cyp D) (Homo sapiens, UniProt P30405); experiment: Protease-free PPIase assay, cyclophilin D; assay type: biochemical
cyclophilin D (Cyp D), sequence (P30405 30-207): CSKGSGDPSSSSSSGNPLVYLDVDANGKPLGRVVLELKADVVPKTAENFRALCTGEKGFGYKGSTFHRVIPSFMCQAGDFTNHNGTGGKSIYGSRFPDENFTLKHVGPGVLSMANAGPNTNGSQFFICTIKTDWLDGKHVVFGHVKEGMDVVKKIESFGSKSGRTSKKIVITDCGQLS
Method: as §1, with “ice.” for “ice. Human recombinant cyclophilin A (Cyp A) (Sigma C3805) enzyme was diluted to 1 μM with enzyme dilution buffer (20 mM HEPES pH 7.8, 40% glycerol, 50 μM DTT and 1 μM BSA) and stored at -20° C.”

[3] = Water solubility assay (pH 7.8 buffer); assay type: physicochemical
Method: ***Water Solubility Assay (Measured in pH 7.8 Buffer)
The onset of precipitation, if it occurred, was detected by an increase in absorbance at 650 nm.
Assay Buffer: 35 mM HEPES pH 7.8
Stock solutions of Control and Test Compounds: 10 mM in 100% DMSO
10 mM stock solutions of control and test compounds were prepared in 100% DMSO. A series of dilutions were prepared from the stock in DMSO so that the final concentrations in the assay were 0, 3.33, 10, 25, 50, 75 and 100 μM and DMSO was limited to 1%.
Assay buffer (247.5 μl) was placed into flat bottomed transparent 96-well plate. For blank samples DMSO (2.5 μl) was added. For test and control samples 2.5 μl of the appropriate DMSO dilution stocks were added to the appropriate well. All test and control compounds were performed in triplicate.
The plates were sealed with adhesive plate seal and shaken at 250 rpm at 25° C. for 18 h on a plate shaker.
After incubation the plate seals were taken off and any bubbles observed in wells removed. The plates were read on a SpectraMaxM5 with a 5 s pre-shake at 650 nm.
Data files were transferred to the appropriate worksheet and the solubility range of the compounds was calculated from the data.
The values shown in the tables indicate the concentration in μM (micromolar) at which the compound remains in solution.

[4] = protease-free PPIase assay, class symbols, read-out: CypA Ki
[5] = protease-free PPIase assay, class symbols, read-out: CypD Ki
[6] = 35 mM HEPES buffer, 35 mM HEPES pH 7.8, 1% DMSO, 25° C., 18 h, concentration at which compound remains in solution, read-out: Solubility

What does the source list for `CC[C@H]1NC(=O)[C@@H]([C@H](O)[C@H](C)CCCc2cccc(C)n2)N(C)C(=O)[C@@H](C(C)C)N(C)C(=O)[C@@H](CC(C)C)NC(=O)[C@@H](CC(C)C)N(C)C(=O)[C@H](C(C)C)OC(=O)[C@@H](C)NC(=O)[C@@H](CC(C)C)N(C)C(=O)[C@@H](CC(C)C)NC(=O)[C@H](CC(C)C)N(C)C(=O)CN(C)C1=O` [Example 21, cyclo-[(3R,4R,5S)-4-(hydroxy)-3-methyl-5-(methylamino)-1-(6-methyl-pyridin-2-yl)-heptanoic acid-Abu-Sar-MeLeu-Leu-MeLeu-Ala-D-Hiv-MeLeu-Leu-MeVal]] (cyclo([Hiv][dNMeL][dL][dNMeV][X1][dAbu][Sar][NMeL][dL][dNMeL][dA]))?
Ki [1]: 1 to 25 nM; Ki [2]: 1 to 25 nM; solubility at 18 h ([3]; pH 7.8): 10 to 25 µM (≈ 13.1 to 32.8 µg/mL)

With `CC(C)C[C@@H]1C(=O)N[C@H](CC(C)C)C(=O)N(C)[C@H](C(C)C)C(=O)N(C)[C@H]([C@H](O)[C@H](C)CCN2CCC(F)(F)CC2)C(=O)N[C@H]([C@@H](C)O)C(=O)N(C)CC(=O)N(C)[C@@H](CC(C)C)C(=O)N[C@H](CC(C)C)C(=O)N(C)[C@H](CC(C)C)C(=O)N[C@H](C)C(=O)O[C@@H](C(C)C)C(=O)N1C` [Example 24, cyclo-[(3R,4R,5S)-4-(hydroxy)-3-methyl-5-(methylamino)-1-N-(4,4-difluoro-piperidine)-hexanoic acid-Thr-Sar-MeLeu-Leu-MeLeu-Ala-D-Hiv-MeLeu-Leu-MeVal]] (cyclo([Hiv][dNMeL][dL][dNMeV][X20][d(aThr)][Sar][NMeL][dL][dNMeL][dA])) as the compound, how does the Ki [1] read?
Its Ki is 1 to 25 nM.

And the Ki [2]?
The Ki was 1 to 25 nM.

And the solubility at 18 h ([3]; pH 7.8)?
Its solubility at 18 h is 25 to 50 µM (≈ 33.5 to 67 µg/mL).

What does the source list for `CC(C)C[C@@H]1C(=O)N[C@H](CC(C)C)C(=O)N(C)[C@H](C(C)C)C(=O)N(C)[C@H]([C@H](O)[C@H](C)CCN2CCC(F)(CO)CC2)C(=O)N[C@H]([C@@H](C)O)C(=O)N(C)CC(=O)N(C)[C@@H](CC(C)C)C(=O)N[C@H](CC(C)C)C(=O)N(C)[C@H](CC(C)C)C(=O)N[C@H](C)C(=O)O[C@@H](C(C)C)C(=O)N1C` [Example 25, cyclo-[(3R,4R,5S)-4-(hydroxy)-3-methyl-5-(methylamino)-1-N-((4-fluoro-piperidin-4-yl)-methanol)-hexanoic acid-Thr-Sar-MeLeu-Leu-MeLeu-Ala-D-Hiv-MeLeu-Leu-MeVal]] (cyclo([Hiv][dNMeL][dL][dNMeV][X33][d(aThr)][Sar][NMeL][dL][dNMeL][dA]))?
Ki [1, 4]: 100 to 300 nM; Ki [2, 5]: 100 to 300 nM; solubility at 18 h [3, 6]: > 100 µM

Which results are given for `CC(C)C[C@@H]1C(=O)N[C@H](CC(C)C)C(=O)N(C)[C@H](C(C)C)C(=O)N(C)[C@H]([C@H](O)[C@H](C)CCN2CCC[C@H]2CO)C(=O)N[C@H]([C@@H](C)O)C(=O)N(C)CC(=O)N(C)[C@@H](CC(C)C)C(=O)N[C@H](CC(C)C)C(=O)N(C)[C@H](CC(C)C)C(=O)N[C@H](C)C(=O)O[C@@H](C(C)C)C(=O)N1C` [Example 26, cyclo-[(3R,4R,5S)-4-(hydroxy)-3-methyl-5-(methylamino)-1-N—((S)-1-Pyrrolidin-2-yl-methanol)-hexanoic acid-Thr-Sar-MeLeu-Leu-MeLeu-Ala-D-Hiv-MeLeu-Leu-MeVal]] (cyclo([Hiv][dNMeL][dL][dNMeV][X8][d(aThr)][Sar][NMeL][dL][dNMeL][dA]))?
Ki [1]: 100 to 300 nM; Ki [2]: 25 to 100 nM; solubility at 18 h ([3]; pH 7.8): > 100 µM

With `CC(C)C[C@@H]1C(=O)N[C@H](CC(C)C)C(=O)N(C)[C@H](C(C)C)C(=O)N(C)[C@H]([C@H](O)[C@H](C)CCN(C)CCC#N)C(=O)N[C@H]([C@@H](C)O)C(=O)N(C)CC(=O)N(C)[C@@H](CC(C)C)C(=O)N[C@H](CC(C)C)C(=O)N(C)[C@H](CC(C)C)C(=O)N[C@H](C)C(=O)O[C@@H](C(C)C)C(=O)N1C` [Example 27, cyclo-[(3R,4R,5S)-4-(hydroxy)-3-methyl-5-(methylamino)-1-N-(3-methylamino-propionitrile)-hexanoic acid-Thr-Sar-MeLeu-Leu-MeLeu-Ala-D-Hiv-MeLeu-Leu-MeVal]] (cyclo([Hiv][dNMeL][dL][dNMeV][X11][d(aThr)][Sar][NMeL][dL][dNMeL][dA])) as the compound, how does the Ki [1] read?
Its Ki is 25 to 100 nM.

What about the Ki [2] of the same compound?
The Ki was 1 to 25 nM.

What about the solubility at 18 h ([3]; pH 7.8) of the same compound?
The solubility at 18 h was over 100 µM.

Which results are given for `CC(C)C[C@@H]1C(=O)N[C@H](CC(C)C)C(=O)N(C)[C@H](C(C)C)C(=O)N(C)[C@H]([C@H](O)[C@H](C)CCN(C)c2ccccn2)C(=O)N[C@H]([C@@H](C)O)C(=O)N(C)CC(=O)N(C)[C@@H](CC(C)C)C(=O)N[C@H](CC(C)C)C(=O)N(C)[C@H](CC(C)C)C(=O)N[C@H](C)C(=O)O[C@@H](C(C)C)C(=O)N1C` [Example 28, cyclo-[(3R,4R,5S)-4-(hydroxy)-3-methyl-5-(methylamino)-1-N-(methyl-pyridin-2-yl-amine)-hexanoic acid-Thr-Sar-MeLeu-Leu-MeLeu-Ala-D-Hiv-MeLeu-Leu-MeVal]] (cyclo([Hiv][dNMeL][dL][dNMeV][X27][d(aThr)][Sar][NMeL][dL][dNMeL][dA]))?
Ki [1]: 1 to 25 nM; Ki [2]: 1 to 25 nM; solubility at 18 h ([3]; pH 7.8): 25 to 50 µM (≈ 33.2 to 66.4 µg/mL)

What does the source list for `CC(C)C[C@@H]1C(=O)N[C@H](CC(C)C)C(=O)N(C)[C@H](C(C)C)C(=O)N(C)[C@H]([C@H](O)[C@H](C)CCN2CCOC[C@H]2C)C(=O)N[C@H]([C@@H](C)O)C(=O)N(C)CC(=O)N(C)[C@@H](CC(C)C)C(=O)N[C@H](CC(C)C)C(=O)N(C)[C@H](CC(C)C)C(=O)N[C@H](C)C(=O)O[C@@H](C(C)C)C(=O)N1C` [Example 29, cyclo-[(3R,4R,5S)-4-(hydroxy)-3-methyl-5-(methylamino)-1-N—((R)-3-Methyl-morpholine)-hexanoic acid-Thr-Sar-MeLeu-Leu-MeLeu-Ala-D-Hiv-MeLeu-Leu-MeVal]] (cyclo([Hiv][dNMeL][dL][dNMeV][X6][d(aThr)][Sar][NMeL][dL][dNMeL][dA]))?
Ki [1]: 25 to 100 nM; Ki [2]: 25 to 100 nM; solubility at 18 h ([3]; pH 7.8): > 100 µM

With `CC(C)C[C@@H]1C(=O)N[C@H](CC(C)C)C(=O)N(C)[C@H](C(C)C)C(=O)N(C)[C@H]([C@H](O)[C@H](C)CCN(Cc2ccccn2)Cc2ccccn2)C(=O)N[C@H]([C@@H](C)O)C(=O)N(C)CC(=O)N(C)[C@@H](CC(C)C)C(=O)N[C@H](CC(C)C)C(=O)N(C)[C@H](CC(C)C)C(=O)N[C@H](C)C(=O)O[C@@H](C(C)C)C(=O)N1C` [Example 30, cyclo-[(3R,4R,5S)-4-(hydroxy)-3-methyl-5-(methylamino)-1-N-(bis-pyridin-2-ylmethyl-amine)-hexanoic acid-Thr-Sar-MeLeu-Leu-MeLeu-Ala-D-Hiv-MeLeu-Leu-MeVal]] (cyclo([Hiv][dNMeL][dL][dNMeV][X13][d(aThr)][Sar][NMeL][dL][dNMeL][dA])) as the compound, how does the Ki [1, 4] read?
The Ki was 25 to 100 nM.

What about the Ki [2, 5] of the same compound?
Its Ki is 1 to 25 nM.

And the solubility at 18 h [3, 6]?
Its solubility at 18 h is 10 to 25 µM (≈ 14.2 to 35.5 µg/mL).
